According to paper PMC11375702, “Early Preclinical Studies of Ergosterol Peroxide and Biological Evaluation of Its Derivatives” (ACS Omega, 2024):
Converted amounts (≈) assume the structure as drawn. Where two headings read alike, the source gives them in different places.

Experiments:
[1] = Parallel Artificial Membrane Permeability Assay (PAMPA); assay type: in vitro ADME
Protocol: This assay is to analyze the permeability of various drugs/compounds on a homogeneous artificial lipid membrane using the normal Double-Sink PAMPA protocol. Then, 6 μL of 10 mM compound solution in DMSO was applied to each well in a stock plate. Compounds were diluted 200-fold in PBS buffer (pH = 7.4). 180 μL of diluted solution was added to a donor plate (pION INC, Woburn, MA). A filter plate (acceptor plate; pION INC, Woburn, MA) containing 200 μL of acceptor sink buffer (ASB, pH = 7.4; pION INC, Woburn, MA) was then placed over the donor plate. The plates were incubated at room temperature for 0.5 h with magnetic stirring in individual wells to allow the compounds to cross the membrane. Fractions were collected from both the donor plate and the acceptor plate, and the concentrations were assessed by UV spectrometry (230–500 nm). Sample preparation, sample analysis, and data processing are fully automated using a Biomek FX ADME-TOX workstation and the UV-based PAMPA Evolution-96 Command Software. All compounds were tested in triplicates.

[2] = tested on: MDA-MB-231-GFP mammary fat pad tumors; assay: In vivo efficacy, MDA-MB-231-GFP mammary fat pad tumors; parameters: species or system mouse; conditions: 100 mg/kg BW i.p. 3 times per week
Protocol: Finally, to test the effect of EP on breast cancer progression in vivo, we established mammary fat pad tumors from GFP-tagged TNBC MDA-MB-231 cancer cells as we have previously described.[47] Mice were injected with TNBC cells diluted in Matrigel in their fourth mammary fat pad, and when tumors were palpable, the mice were injected via intraperitoneal (i.p.) 3 times per week with vehicle (10% ethanol) or 100 mg/kg BW of EP. […] The progression of the tumor was quantified by fluorescence image analysis obtained on a weekly basis.
Female (3-week-old) severe combined immunodeficient (SCID) Hairless Outbred (SHO) mice (Charles River Laboratories, Wilmington, MA) were segregated into two groups (n = 3 mice/group) and housed under specific pathogen-free conditions. The mice received an autoclaved AIN 76-A phytoestrogen-free diet (Tek Global, Harlan Teklad, Madison, WI) and water ad libitum. Cell inoculations were performed under isoflurane inhalation as we previously described[47] to produce orthotopic tumors as described in the provided reference.[54] […] GFP-tagged cells were monitored weekly for the duration of the study using an iBox Explorer^2 (UVP, CA) animal imaging system. […] Tumor fluorescence intensities were analyzed using ImageJ software (National Institutes of Health, Bethesda, MD). […]

[3] = Caco-2 permeability assay; assay type: in vitro ADME; conditions: human; for efflux ratio at 2 h, 10 µmol/L: Caco-2, pH 7.4, Caco-2, read-out: efflux ratio (B2A/A2B); for Papp A→B at 2 h, 10 µmol/L / Papp B→A at 2 h, 10 µmol/L: Caco-2, pH 7.4; for Papp A→B at 2 h, 10 µmol/L: apical to basolateral; for Papp B→A at 2 h, 10 µmol/L: basolateral to apical
Protocol: It was performed in the 96-well Transwell system with a modified method.[36] Caco-2 cells were maintained at 37 °C in a humidified incubator with an atmosphere of 5% CO2. The cells were cultured in MEM containing 20% FBS in […], 100 units/mL penicillin, and 100 μg/mL of streptomycin. The Caco-2 cells were seeded onto inserts of a 96-well plate at a density of 0.5 × 10^5 cells/insert and cultured in the MEM containing 20% FBS for 7 days. Each cultured monolayer on the 96-well plate was washed twice with HBSS/HEPES (10 mM, pH 7.4). The permeability assay was initiated by the addition of each compound solution (10 μmol/L) into inserts (apical side, A) or receivers (basolateral side, B). The Caco-2 cell monolayers were incubated for 2 h at 37 °C. Fractions were collected from receivers (if apical to basal permeability) or inserts (if basal to apical permeability), and concentrations were assessed by UPLC/MS (Waters; Milford, MA). All compounds were tested in triplicates. The A → B (or B → A) apparent permeability coefficients ([…]) of each compound were calculated using the equation Pappa = dQ/dt × 1/AC0. The flux of a drug across the monolayer is dQ/dt (μmol/s). The initial drug concentration on the apical side is C0 (μmol/L). The surface area of the monolayer is A (cm^2).

[4] = Aqueous solubility by UV/vis absorbance; assay type: physicochemical; conditions: kinetic from dmso stock
Description: First, topological polar surface area (tPSA), a widely used molecular descriptor that provides insight into compound absorption and membrane penetration, was theoretically calculated for these compounds along with the estimated c log P (partition coefficient) or log P to further assess their global therapeutic potential.[18],[19] Lipophilicity, a measurable and predictable physical property, can provide practical guidance in designing compounds with improved molecular properties.[20] The tPSA sums the contribution of the surface area of polar atoms, enabling us to determine whether the compounds are more likely to be cell membrane permeable. The aqueous solubility was measured by ultraviolet/visible (UV/vis) spectroscopy.[21] […] EP shares an improved cLogP, but still relatively high from a desirable drug candidate (2.5–3.5). […] Compound 4 has a higher c log P, while compounds 5–10 have lower c log P values. To determine LiPE (lipophilicity efficiency), the following formula was used: LiPE = pIC50 – log P, according to established methods.[22],[23] […] The obtained EC50 values for the newly generated EP derivatives were within a similar range for other derivatives previously described against TNBC models.[17]
Briefly, clear 96-well PS plates with lids (catalog no. 3903, Corning, Glendale, Arizona) were used for spectrophotometric determination of absorbance with a CLARIOstar Plus plate reader (BMG LabTech, Ortenberg, Germany) to determine at which concentration the compounds are precipitating out of solution. Decrease in transmittance of 2% or higher was considered significant. Compound solutions of 10 mM in DMSO were prepared followed by a serial dilution series, which were vortexed to ensure the solutions were homogeneous. The 96-well plate was then prepared with distilled H2O and allowed to equilibrate for 1.5 h. Then, the plate was placed in a CLARIOstar Plus plate reader or Cytation C10 (Biotek, Agilent) and set to detect absorbance at 220–700 nm. Each well was read individually. Three replicate assays were conducted for each experimental condition, and a minimum of three independent experiments were conducted.

For `CC(C)[C@@H](C)/C=C/[C@@H](C)[C@H]1CC[C@@H]2[C@]1(C)CC[C@H]1[C@]23C=C[C@]2(C[C@@H](O)CC[C@]12C)OO3` [Compound 2, Ergosterol peroxide], which Papp at 0.5 h, 50 µM ([1]; PAMPA, pH 7.4, pH 7.40, read-out: PAMPA Avg Pe) is on record?
The Papp at 0.5 h, 50 µM was 65.3 ×10⁻⁶ cm/s.

What about the “PAMPA %R” value ([1]; pH 7.40) of the same molecule?
Its value is 81.90%.

And the “PAMPA Avg Pe” value ([1]; pH 7.40)?
Its value is 65.31 10–6 cm/s.

And the tumor growth ([2]; by week 3, P < 0.05)?
Its tumor growth is “decreases tumor growth”.

What about the tumor size reduction ([2]; end of study, vs vehicle) of the same molecule?
The tumor size reduction was ~17%.

And the efflux ratio at 2 h, 10 µmol/L [3]?
The efflux ratio at 2 h, 10 µmol/L was ~1.

What about the Papp A→B at 2 h, 10 µmol/L [3] of the same molecule?
Its Papp A→B at 2 h, 10 µmol/L is 34.2 ×10⁻⁶ cm/s.

And the Papp B→A at 2 h, 10 µmol/L [3]?
Its Papp B→A at 2 h, 10 µmol/L is 31.9 ×10⁻⁶ cm/s.

What about the solubility at […] ([4]; distilled water, distilled H2O, UV/vis, read-out: solubility limit) of the same molecule?
Its solubility at […] is 21.4 µg/mL (≈ 50 µM).

For `CC(C)[C@@H](C)/C=C/[C@@H](C)[C@H]1CC[C@@H]2[C@]1(C)CC[C@H]1[C@]23C=C[C@]2(CC(=O)CC[C@]12C)OO3` [Compound 3], which “PAMPA Avg Pe” value ([1]; PAMPA, 0.5 h, 50 µM, pH 7.4) is on record?
Its value is 00 10–6 cm/s.

And the efflux ratio at 2 h, 10 µmol/L [3]?
Its efflux ratio at 2 h, 10 µmol/L is 0.49.

What about the Papp A→B at 2 h, 10 µmol/L [3] of the same molecule?
The Papp A→B at 2 h, 10 µmol/L was 0.626 ×10⁻⁶ cm/s.

And the Papp B→A at 2 h, 10 µmol/L [3]?
Its Papp B→A at 2 h, 10 µmol/L is 0.307 ×10⁻⁶ cm/s.

What about the solubility at […] ([4]; water) of the same molecule?
Its solubility at […] is 10.7 µg/mL (≈ 25 µM).
